Our source for the Ki values is patent US7276603B2, “Benzofuranyl-and benzothienyl-piperazinyl quinolines and methods of their use” (Wyeth, priority 2003, dated 2007).

One experiment has as its target 5-HT transporter (Rattus norvegicus, UniProt P31652). In words: Rat Brain 3H-Paroxetine Binding Assay (RB 5HT Transporter). To be noted: rat frontal cortical membranes; 3H-paroxetine 0.1 nM, 60 min, 25° C. From the text: Rat Brain ^3H-Paroxetine Binding Assay (RB 5HT Transporter):
This assay was used to determine a compound's affinity of the 5-HT transporter.
All reactions were terminated by the addition of ice cold Tris buffer followed by rapid filtration using a Tom Tech filtration device to separate bound from free ^3H-paroxetine.

For a further experiment, the target named is T1, human 5-HT1A receptors (Homo sapiens, UniProt P08908).
T1 construct: expressed in transfected cells; host or cells: CHO cells
T1 sequence (P08908 1-422): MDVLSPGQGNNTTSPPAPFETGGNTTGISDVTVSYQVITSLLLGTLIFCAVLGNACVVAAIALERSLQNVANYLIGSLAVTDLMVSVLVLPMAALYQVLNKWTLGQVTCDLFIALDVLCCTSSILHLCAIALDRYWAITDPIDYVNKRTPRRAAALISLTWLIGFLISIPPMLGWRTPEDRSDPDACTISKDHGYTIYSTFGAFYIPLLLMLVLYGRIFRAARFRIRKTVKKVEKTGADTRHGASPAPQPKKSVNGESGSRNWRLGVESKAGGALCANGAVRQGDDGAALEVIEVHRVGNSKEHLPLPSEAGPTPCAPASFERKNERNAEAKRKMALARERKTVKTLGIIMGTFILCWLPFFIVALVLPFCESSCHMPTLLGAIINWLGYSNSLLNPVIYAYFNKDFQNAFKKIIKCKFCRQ
In words: displacement of [3H] 8-OH-DPAT from the 5-HT1A serotonin receptor. The settings on record: CHO cells stably transfected with human 5-HT1A receptors. The format is binding.

pKi: −log10 of the molar value.

Sequence of 5-HT transporter (P31652 whole entry): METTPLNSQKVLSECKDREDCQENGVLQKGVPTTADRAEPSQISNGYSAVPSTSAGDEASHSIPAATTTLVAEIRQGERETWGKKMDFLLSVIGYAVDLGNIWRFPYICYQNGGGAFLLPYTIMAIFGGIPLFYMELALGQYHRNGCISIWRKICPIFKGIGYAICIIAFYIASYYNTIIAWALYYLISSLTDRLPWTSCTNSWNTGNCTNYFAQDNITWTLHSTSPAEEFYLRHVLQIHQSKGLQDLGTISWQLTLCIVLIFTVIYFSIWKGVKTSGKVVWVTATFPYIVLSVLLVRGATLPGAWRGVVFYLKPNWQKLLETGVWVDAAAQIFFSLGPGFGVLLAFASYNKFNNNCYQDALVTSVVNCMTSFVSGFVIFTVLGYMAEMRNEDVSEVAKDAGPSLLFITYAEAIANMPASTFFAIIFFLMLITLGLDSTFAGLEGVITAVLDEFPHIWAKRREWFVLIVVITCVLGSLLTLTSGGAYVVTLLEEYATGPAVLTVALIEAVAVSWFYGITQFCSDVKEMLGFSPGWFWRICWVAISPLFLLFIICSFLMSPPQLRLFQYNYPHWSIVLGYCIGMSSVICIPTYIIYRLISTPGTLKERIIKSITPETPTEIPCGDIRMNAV

Turning to `Fc1cc(N2CCN(CCc3coc4ccccc34)CC2)c2ncccc2c1` [Compound 1, 8-{4-[2-(1-benzofuran-3-yl)ethyl]-1-piperazinyl}-6-fluoroquinoline], on 5-HT transporter, the pKi (in general, the Ki on a negative log10 scale, so that one unit is a factor of ten) is 8.19.

As to `Clc1cc(N2CCN(CCc3coc4ccccc34)CC2)c2ncccc2c1` [Compound 2, 8-{4-[2-(1-benzofuran-3-yl)ethyl]-1-piperazinyl}-6-chloroquinoline], the pKi on human 5-HT1A receptors was 6.91; at 5-HT transporter, 6.75. On the same counts, the results for `Cc1cc(N2CCN(CCc3coc4ccccc34)CC2)c2ncccc2c1` [Compound 3, 8-{4-[2-(1-benzofuran-3-yl)ethyl]-1-piperazinyl}-6-methylquinoline] are 8.71 and 7.85. The matching figures for `COc1cc(N2CCN(CCc3coc4ccccc34)CC2)c2ncccc2c1` [Compound 4, 8-{4-[2-(1-benzofuran-3-yl)ethyl]-1-piperazinyl}-6-methoxyquinoline]: 8.61 and 7.22. The matching figures for `Clc1ccc2c(CCN3CCN(c4cccc5cccnc45)CC3)coc2c1` [Compound 5, 8-{4-[2-(6-chloro-1-benzofuran-3-yl)ethyl]-1-piperazinyl}-quinoline]: 9.14 and 7.51.

Turning to `Fc1cc(N2CCN(CCc3coc4cc(Cl)ccc34)CC2)c2ncccc2c1` [Compound 6, 8-{4-[2-(6-chloro-1-benzofuran-3-yl)ethyl]-1-piperazinyl}-6-fluoro-quinoline], the pKi was 7.79 on human 5-HT1A receptors and 6.33 at 5-HT transporter. Regarding `Clc1cc(N2CCN(CCc3coc4cc(Cl)ccc34)CC2)c2ncccc2c1` [Compound 7, 8-{4-[2-(6-chloro-1-benzofuran-3-yl)ethyl]-1-piperazinyl}-6-chloro-quinoline], on human 5-HT1A receptors, the pKi is 7.81.

For the compound `Cc1cc(N2CCN(CCc3coc4cc(Cl)ccc34)CC2)c2ncccc2c1` [Compound 8, 8-{4-[2-(6-chloro-1-benzofuran-3-yl)ethyl]-1-piperazinyl}-6-methyl-quinoline], the pKi on human 5-HT1A receptors was 7.44; on 5-HT transporter it was 6.39.

In the case of `COc1ccc2c(CCN3CCN(c4cccc5cccnc45)CC3)coc2c1` [Compound 9, 8-{4-[2-(6-methoxy-1-benzofuran-3-yl)ethyl]-1-piperazinyl}-quinoline], the pKi on human 5-HT1A receptors was 9.43; at 5-HT transporter, 7.48. The matching figures for `COc1ccc2c(CCN3CCN(c4cc(C)cc5cccnc45)CC3)coc2c1` [Compound 10, 8-{4-[2-(6-methoxy-1-benzofuran-3-yl)ethyl]-1-piperazinyl}-6-methyl-quinoline]: 9.03 and 7.01. The matching figures for `COc1ccc2c(CCN3CCN(c4cc(Cl)cc5cccnc45)CC3)coc2c1` [Compound 11, 8-{4-[2-(6-methoxy-1-benzofuran-3-yl)ethyl]-1-piperazinyl}-6-chloro-quinoline]: 9.09 and 7.43.

As to `COc1cccc2c(CC(C)N3CCN(c4cccc5cccnc45)CC3)coc12` (stereo not drawn) [Compound 35, 8-{4-[2-(7-methoxy-1-benzofuran-3-yl)-1-methylethyl)piperazin-1-yl]quinoline], the pKi at human 5-HT1A receptors was 8.91. For `COc1cccc2c(CC(C)N3CCN(c4cc(C)cc5cccnc45)CC3)coc12` (stereo not drawn) [Compound 37, 6-methyl-8-{4-[2-(7-methoxy-1-benzofuran-3-yl)-1-methylethyl)piperazin-1-yl]quinoline], at 5-HT transporter, the pKi is 6.33. Compound `COc1ccc2occ(CC(C)N3CCN(c4cccc5cccnc45)CC3)c2c1` (stereo not drawn) [Compound 38, 8-{4-[2-(5-methoxy-1-benzofuran-3-yl)-1-methylethyl)piperazin-1-yl]quinoline] gave a pKi on human 5-HT1A receptors of 9.85. On the same count and under the same terms, next, `Fc1cc(N2CCN([C@H]3CC[C@@H](c4csc5ccc(F)cc54)CC3)CC2)c2ncccc2c1` [Compound 47, 6-fluoro-8-{4-[4-cis(5-fluoro-1-benzothien-3-yl)cyclohexyl]piperazin-1-yl}quinoline]: 8.76.
